Each structure is given as a SMILES string.

The assay addresses T1, human PTH1 receptor (Homo sapiens, UniProt Q03431).
T1 sequence (Q03431 27-593): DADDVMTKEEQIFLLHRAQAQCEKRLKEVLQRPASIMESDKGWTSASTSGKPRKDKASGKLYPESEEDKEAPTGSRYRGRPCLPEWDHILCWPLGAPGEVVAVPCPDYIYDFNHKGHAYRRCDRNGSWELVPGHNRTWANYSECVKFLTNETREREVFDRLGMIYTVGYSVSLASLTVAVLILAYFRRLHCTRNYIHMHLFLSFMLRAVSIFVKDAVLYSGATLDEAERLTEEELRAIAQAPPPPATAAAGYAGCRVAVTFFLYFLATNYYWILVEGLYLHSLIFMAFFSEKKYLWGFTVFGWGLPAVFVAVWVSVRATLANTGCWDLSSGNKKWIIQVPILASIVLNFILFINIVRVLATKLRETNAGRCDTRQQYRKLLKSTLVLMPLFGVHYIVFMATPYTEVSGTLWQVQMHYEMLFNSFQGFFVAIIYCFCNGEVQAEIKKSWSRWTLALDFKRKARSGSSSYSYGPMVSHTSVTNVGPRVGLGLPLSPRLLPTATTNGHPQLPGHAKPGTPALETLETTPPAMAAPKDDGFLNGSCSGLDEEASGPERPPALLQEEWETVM
Nature of the assay: In vitro cAMP signal activity in HKRK-B7 cells (LLC-PK1 cells overexpressing the human PTH1 receptor). Particulars: HKRK-B7 cells; compound at 1×10^−3 M; cAMP produced as percentage of that produced by hPTH(1-34) at 100 nM. Format: cell-based.
As for `Cc1cc(N(C)C(N)=O)cc(C)c1CCS(=O)(=O)N1CCC2(CC1)N=C(C1CCC(CC(F)(F)C(F)(F)F)CC1)NC2=O` (stereo not shown) [Compound 1042, 1-[3,5-dimethyl-4-(2-{4-oxo-2-[4-(2,2,3,3,3-pentafluoro-propyl)-cyclohexyl]-1,3,8-triaza-spiro[4.5]dec-1-ene-8-sulfonyl}-ethyl)-phenyl]-1-methyl-urea], the “cAMP production activity (%)” value is given as 102%. The value for `Cc1cc(N(C)C(N)=O)cc(C)c1CCS(=O)(=O)N1CCC2(CC1)N=C(CCCCCC(F)(F)C(F)(F)F)NC2=O` [Compound 1043, 1-(3,5-Dimethyl-4-{2-[4-oxo-2-(6,6,7,7,7-pentafluoro-heptyl)-1,3,8-triaza-spiro[4.5]dec-1-ene-8-sulfonyl]-ethyl}-phenyl)-1-methyl-urea] was 99%; that for `CC(=O)N(C)c1cc(C)c(CCS(=O)(=O)N2CCC3(CC2)N=C(CCCCCCC(F)(F)F)NC3=O)c(C)c1` [Compound 1044, N-(3,5-Dimethyl-4-{2-[4-oxo-2-(7,7,7-trifluoro-heptyl)-1,3,8-triaza-spiro[4.5]dec-1-ene-8-sulfonyl]-ethyl}-phenyl)-N-methyl-acetamide] was 86%; that for `Cc1cc(N(C)C(N)=O)cc(C)c1CCS(=O)(=O)N1CCC2(CC1)N=C(CCCCCCC(F)(F)F)NC2=O` [Compound 1045, 1-(3,5-dimethyl-4-{2-[4-oxo-2-(7,7,7-trifluoro-heptyl)-1,3,8-triaza-spiro[4.5]dec-1-ene-8-sulfonyl]-ethyl}-phenyl)-1-methyl-urea] was 106%. For `Cc1cc(N(C)C(N)=O)cc(C)c1CCS(=O)(=O)N1CCC2(CC1)N=C(CCCCCCCCC(F)(F)F)NC2=O` [Compound 1046, 1-(3,5-dimethyl-4-{2-[4-oxo-2-(9,9,9-trifluoro-nonyl)-1,3,8-triaza-spiro[4.5]dec-1-ene-8-sulfonyl]-ethyl}-phenyl)-1-methyl-urea], the “cAMP production activity (%)” value is given as 101%. For `CC(=O)N(C)c1cc(C)c(CCS(=O)(=O)N2CCC3(CC2)N=C(CCCCCCCCC(F)(F)F)NC3=O)c(C)c1` [Compound 1047, N-(3,5-dimethyl-4-{2-[4-oxo-2-(9,9,9-trifluoro-nonyl)-1,3,8-triaza-spiro[4.5]dec-1-ene-8-sulfonyl]-ethyl}-phenyl)-N-methyl-acetamide], the “cAMP production activity (%)” value is reported as 82%. With `Cc1cc(N(C)C(N)=O)cc(C)c1CCS(=O)(=O)N1CCC2(CC1)N=C(C1(CCCC(F)(F)F)CC1)NC2=O` [Compound 1048, 1-[3,5-Dimethyl-4-(2-{4-oxo-2-[1-(4,4,4-trifluoro-butyl)-cyclopropyl]-1,3,8-triaza-spiro[4.5]dec-1-ene-8-sulfonyl}-ethyl)-phenyl]-1-methyl-urea], the “cAMP production activity (%)” value was determined as 96%. With `Cc1cc(N(C)C(N)=O)cc(C)c1CCS(=O)(=O)N1CCC2(CC1)N=C(C1CCCC(C(F)(F)F)C1)NC2=O` (stereo not shown) [Compound 1050, 1-(3,5-Dimethyl-4-{2-[4-oxo-2-(3-trifluoromethyl-cyclohexyl)-1,3,8-triaza-spiro[4.5]dec-1-ene-8-sulfonyl]-ethyl}-phenyl)-1-methyl-urea], the “cAMP production activity (%)” value amounted to 92%. On to `Cc1cc(N(C)C(N)=O)cc(C)c1CCS(=O)(=O)N1CCC2(CC1)N=C(C1C[C@@H](C)[C@@H](C)C1)NC2=O` (stereo partly drawn) [Compound 1051, 1-(4-{2-[2-(cis-3,4-dimethyl-cyclopentyl)-4-oxo-1,3,8-triaza-spiro[4.5]dec-1-ene-8-sulfonyl]-ethyl}-3,5-dimethyl-phenyl)-1-methyl-urea], for which the “cAMP production activity (%)” value is given as 85%. Consider `Cc1cc(N(C)C(N)=O)cc(C)c1CCS(=O)(=O)N1CCC2(CC1)N=C(C(C1CC1)C1CC1)NC2=O` [Compound 1052, 1-{4-[2-(2-dicyclopropylmethyl-4-oxo-1,3,8-triaza-spiro[4.5]dec-1-ene-8-sulfonyl)-ethyl]-3,5-dimethyl-phenyl}-1-methyl-urea], for which the “cAMP production activity (%)” value came out at 62%.

Values taken from patent publication US9169254B2, “Spiroimidazolone derivative” (Chugai Seiyaku Kabushiki Kaisha, priority 2009, dated 2015).
